Experimental data from PMC8264259, “A Novel Ruthenium(II) Complex With Lapachol Induces G2/M Phase Arrest Through Aurora-B Kinase Down-Regulation and ROS-Mediated Apoptosis in Human Prostate Adenocarcinoma Cells” (Frontiers in Oncology, 2021).

Columns and labels:
calf thymus DNA (ct-DNA) = experiment: DNA minor groove interaction assay with Hoechst 33258; format: binding; conditions: Hoechst 2.7 µM, ct-DNA 125 µM, complex 0-125 µM, 37°C
Description: DNA minor groove interaction was assessed by examining the ability of the complexes to displace Hoechst 33258 (Thermo Fischer Scientific) from calf thymus DNA (ct-DNA) (Sigma-Aldrich). The ct-DNA solution was prepared by dilution of 2 mg of the ct-DNA in 1 ml of Tris-HCl buffer (4.5 mM Tris-HCl, 0.5 mM Tris-base, 50 mM NaCl, pH 7.4), and the concentration was determined by absorption spectrophotometric using the molar absorption coefficient 6600 mol^−1 dm^3 cm^−1 at 260 nm ([38]). Thus, the ct-DNA (125 µM) was incubated with Hoechst (2.7 µM), and the extinction of the fluorescence intensity was monitored by the addition of different concentrations (0–125 µM) of both complexes in Tris-HCl containing 10% of DMSO. Fluorescence emission spectra were recorded from […] to 500 nm after excitation wavelength of 343 nm, using an opaque 96-well plate, in a Synergy H1 Fluorescence Spectrophotometer (BioTek®), at 37°C.

pBR322 plasmid DNA = experiment: DNA interactions assay with pBR322 plasmid (agarose gel electrophoresis); format: biochemical; conditions: 1.0 μM, 37°C, 18 h
Description: Plasmid pBR322 (38 µM, Sigma-Aldrich) was mixed with different concentrations (0.125–1.0 µM) of both complexes and incubated at 37°C for 18 h. Then, the loading buffer was added and the samples were analyzed by agarose gel electrophoresis for 90 min in 1% agarose gel using a Tris-acetate-EDTA (TAE) buffer (0.45 M Tris-HCl, 0.45 M acetic acid, 10 mM EDTA, pH 7.4), and ethidium bromide was employed for staining. Bands were visualized with a ChemiDoc MP imager (BioRad, USA).

CC(C)=CCC1=C([O-])C(=O)c2ccccc2C1=O.F[P-](F)(F)(F)(F)F.[Ru+2].c1ccc(P(CP(c2ccccc2)c2ccccc2)c2ccccc2)cc1.c1cnc2c(c1)ccc1cccnc12 [complex (2), [Ru(Lap)(dppm)(phen)]PF6]
displacement of Hoechst 33258 from ct-DNA (fluorescence) (calf thymus DNA (ct-DNA)): decrease the fluorescence of the Hoechst-DNA system
nuclease activity on pBR322 (supercoiled to linear) (pBR322 plasmid DNA): single-strand DNA cleavage
